The test system of assay [1] is Streptomyces coelicolor. The experiment in a line: Antimicrobial activity against paromomycin-resistant Streptomyces coelicolor SP1 harboring rpsL A262G and C271T mutant gene after 48 hrs. It is filed as functional.
The subject of assay [2] is Streptomyces coelicolor. The assay is described as follows: Antimicrobial activity against Streptomyces coelicolor 1147 after 48 hrs. It is filed as functional.
The subject of assay [3] is Streptomyces coelicolor. The assay is described as follows: Antimicrobial activity against streptomycin-resistant Streptomyces coelicolor KO-178 harboring rpsL K88E mutant gene after 48 hrs. It is filed as functional.
Assay [4] relates to Streptomyces coelicolor. The assay is described as follows: Antimicrobial activity against paromomycin-resistant Streptomyces coelicolor SP2 harboring rpsL K88E mutant gene and inserted glycine at position 92 of the gene after 48 hrs. It is filed as functional.
The test system of assay [5] is Streptomyces coelicolor. The experiment in a line: Antimicrobial activity against paromomycin-resistant Streptomyces coelicolor 92G harboring rpsL gene with inserted glycine at position 92 after 48 hrs. It is filed as functional.
The test system of assay [6] is Streptomyces coelicolor. The assay is described as follows: Antimicrobial activity against paromomycin-resistant Streptomyces coelicolor KO-347 harboring rpsl P91S mutant gene after 48 hrs. It is filed as functional.
Assay [7] has as its system Streptomyces coelicolor. The assay is described as follows: Binding affinity to Streptomyces coelicolor KO-347 30S ribosomal ptotein S12 GI92 mutant assessed as inhibition of protein synthesis at 0.2 ug/ml by fluorescence assay.
The subject of assay [8] is Streptomyces coelicolor. The experiment in a line: Binding affinity to Streptomyces coelicolor KO-178 30S ribosomal protein S12 K88E mutant assessed as inhibition of protein synthesis at 0.2 ug/ml by fluorescence assay.
In assay [9] the target is T1, Small ribosomal subunit protein uS12 (Streptomyces coelicolor (strain ATCC BAA-471 / A3(2) / M145)) (UniProt P0A4A3).
T1 sequence (whole entry): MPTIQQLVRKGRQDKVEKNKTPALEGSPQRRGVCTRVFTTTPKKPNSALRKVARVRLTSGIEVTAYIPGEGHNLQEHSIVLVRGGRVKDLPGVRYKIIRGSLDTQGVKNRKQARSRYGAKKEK
The experiment in a line: Binding affinity to Streptomyces coelicolor 1147 30S ribosomal protein S12 assessed as inhibition of protein synthesis at 0.2 ug/ml by fluorescence assay.

Setting [10] is: Streptomyces coelicolor, 1147, 48 h.

≈ marks a conversion by molar mass, not a printed value. Calls of active or inactive are those of the source. The rule behind the calls is not given here.

As a reminder, the MIC is the least concentration at which growth counts as inhibited. High values mean a less susceptible organism, low ones a more susceptible organism. In the case of `CN[C@@H]1[C@H](O[C@H]2[C@H](O[C@H]3[C@H](O)[C@@H](O)[C@H](N=C(N)N)[C@@H](O)[C@@H]3N=C(N)N)O[C@@H](C)[C@]2(O)C=O)O[C@@H](CO)[C@H](O)[C@H]1O` [STREPTOMYCIN], the minimal inhibitory concentration (MIC) was 200 µg/mL (≈ 344 µM) in the assay on Streptomyces coelicolor [1] (SP1, 48 h); 1 µg/mL (≈ 1.72 µM) against Streptomyces coelicolor [2] (setting [10]); 100 µg/mL (≈ 172 µM) with Streptomyces coelicolor [3] (KO-178, 48 h); greater than 200 µg/mL in the assay on Streptomyces coelicolor [4] (SP2, 48 h); 20 µg/mL (≈ 34.4 µM) against Streptomyces coelicolor [5]; 20 µg/mL (≈ 34.4 µM) against Streptomyces coelicolor [6] (KO-347, 48 h).
`CC(=O)O[C@H]1C[C@@]2(C)[C@@H](C[C@@H](O)[C@H]3[C@@]4(C)CC[C@@H](O)[C@@H](C)[C@@H]4CC[C@@]32C)/C1=C(\CCC=C(C)C)C(=O)O` [FUSIDIC ACID]: the minimum inhibitory concentration (MIC) was found to be 20 µg/mL (≈ 38.7 µM) in the assay with Streptomyces coelicolor [1] (SP1, 48 h); 50 µg/mL (≈ 96.8 µM) against Streptomyces coelicolor [2] (setting [10]); 50 µg/mL (≈ 96.8 µM) against Streptomyces coelicolor [3] (KO-178, 48 h); 20 µg/mL (≈ 38.7 µM) in the assay with Streptomyces coelicolor [4] (SP2, 48 h); 50 µg/mL (≈ 96.8 µM) in the assay on Streptomyces coelicolor [5]; 50 µg/mL (≈ 96.8 µM) against Streptomyces coelicolor [6] (KO-347, 48 h).
`NC[C@H]1O[C@H](O[C@H]2[C@H](O)[C@@H](O[C@H]3O[C@H](CO)[C@@H](O)[C@H](N)[C@H]3O)[C@H](N)C[C@@H]2N)[C@H](O)[C@@H](O)[C@@H]1O` [KANAMYCIN]: the minimal inhibitory concentration (MIC) against Streptomyces coelicolor [1] (SP1, 48 h) was determined as 0.5 µg/mL (≈ 1.03 µM); against Streptomyces coelicolor [2] (setting [10]) it was 0.8 µg/mL (≈ 1.65 µM); against Streptomyces coelicolor [3] (KO-178, 48 h), 0.8 µg/mL (≈ 1.65 µM); against Streptomyces coelicolor [4] (SP2, 48 h), 0.5 µg/mL (≈ 1.03 µM); against Streptomyces coelicolor [5], 1 µg/mL (≈ 2.06 µM); with Streptomyces coelicolor [6] (KO-347, 48 h) it was 0.5 µg/mL (≈ 1.03 µM).
A word on the inhibition: it is the percentage by which the read-out fell short of the control. In the case of `NC[C@@H]1O[C@H](O[C@H]2[C@@H](O)[C@H](O[C@@H]3[C@@H](O)[C@H](N)C[C@H](N)[C@H]3O[C@H]3O[C@H](CO)[C@@H](O)[C@H](O)[C@H]3N)O[C@@H]2CO)[C@H](N)[C@@H](O)[C@@H]1O` [PAROMOMYCIN], the minimal inhibitory concentration (MIC) with Streptomyces coelicolor [1] (SP1, 48 h) was found to be 2 µg/mL (≈ 3.25 µM); in the assay on Streptomyces coelicolor [2] (setting [10]) it was 0.1 µg/mL (≈ 0.162 µM); with Streptomyces coelicolor [3] (KO-178, 48 h), 0.3 µg/mL (≈ 0.487 µM); against Streptomyces coelicolor [4] (SP2, 48 h), 3 µg/mL (≈ 4.87 µM); in the assay with Streptomyces coelicolor [5], 2 µg/mL (≈ 3.25 µM); against Streptomyces coelicolor [6] (KO-347, 48 h), 0.8 µg/mL (≈ 1.3 µM). Besides, the inhibition entry in the assay with Streptomyces coelicolor [7] is “inactive”. Further, the inhibition was greater than 80% with Streptomyces coelicolor [8] and 80% in assay [9].
As for GENTAMICIN, the MIC against Streptomyces coelicolor [1] was 0.5 µg/mL; in the assay with Streptomyces coelicolor [2] it was 0.1 µg/mL; against Streptomyces coelicolor [3], 0.1 µg/mL; against Streptomyces coelicolor [4] it was 0.5 µg/mL; in the assay with Streptomyces coelicolor [5], 0.5 µg/mL; in the assay with Streptomyces coelicolor [6] it was 0.5 µg/mL.
In the case of `CN[C@@H]1[C@@H](O)[C@@H](O[C@@H]2[C@@H](O)[C@H](O[C@H]3O[C@H]([C@@H](C)O)[C@@H](O)[C@H](O)[C@H]3N)[C@@H](N)C[C@H]2N)OC[C@]1(C)O` [GENETICIN], the MIC in the assay on Streptomyces coelicolor [1] (SP1, 48 h) came to 0.5 µg/mL (≈ 1.01 µM); against Streptomyces coelicolor [2] (setting [10]), 0.3 µg/mL (≈ 0.604 µM); against Streptomyces coelicolor [3] (KO-178, 48 h), 0.3 µg/mL (≈ 0.604 µM); with Streptomyces coelicolor [4] (SP2, 48 h) it was 0.5 µg/mL (≈ 1.01 µM); against Streptomyces coelicolor [5], 1 µg/mL (≈ 2.01 µM); in the assay with Streptomyces coelicolor [6] (KO-347, 48 h), 0.3 µg/mL (≈ 0.604 µM).
Turning to `CCC[C@@H]1C[C@@H](C(=O)N[C@@H]([C@H]2O[C@H](SC)[C@H](O)[C@@H](O)[C@H]2O)[C@@H](C)O)N(C)C1` [LINCOMYCIN], the minimal inhibitory concentration (MIC) in the assay with Streptomyces coelicolor [1] (SP1, 48 h) is 40 µg/mL (≈ 98.4 µM); in the assay on Streptomyces coelicolor [2] (setting [10]), 50 µg/mL (≈ 123 µM); in the assay on Streptomyces coelicolor [3] (KO-178, 48 h), 40 µg/mL (≈ 98.4 µM); in the assay with Streptomyces coelicolor [4] (SP2, 48 h), 10 µg/mL (≈ 24.6 µM); against Streptomyces coelicolor [5] it was 20 µg/mL (≈ 49.2 µM); against Streptomyces coelicolor [6] (KO-347, 48 h), 50 µg/mL (≈ 123 µM).
Regarding `NC[C@@H]1O[C@H](O[C@H]2[C@@H](O)[C@H](O[C@@H]3[C@@H](O)[C@H](N)C[C@H](N)[C@H]3O[C@H]3O[C@H](CN)[C@@H](O)[C@H](O)[C@H]3N)O[C@@H]2CO)[C@H](N)[C@@H](O)[C@@H]1O` [FRAMYCETIN], the MIC against Streptomyces coelicolor [1] (SP1, 48 h) turned out to be 0.2 µg/mL (≈ 0.325 µM); in the assay on Streptomyces coelicolor [2] (setting [10]), 0.3 µg/mL (≈ 0.488 µM); in the assay with Streptomyces coelicolor [3] (KO-178, 48 h) it was 0.8 µg/mL (≈ 1.3 µM); against Streptomyces coelicolor [4] (SP2, 48 h), 0.2 µg/mL (≈ 0.325 µM); against Streptomyces coelicolor [5] it was 0.5 µg/mL (≈ 0.813 µM); in the assay with Streptomyces coelicolor [6] (KO-347, 48 h), 0.5 µg/mL (≈ 0.813 µM).
Take `CN(C)[C@@H]1C(O)=C(C(N)=O)C(=O)[C@@]2(O)C(O)=C3C(=O)c4c(O)cccc4[C@@](C)(O)[C@H]3C[C@@H]12` [TETRACYCLINE]: the minimal inhibitory concentration (MIC) in the assay on Streptomyces coelicolor [1] (SP1, 48 h) amounted to 3 µg/mL (≈ 6.75 µM); with Streptomyces coelicolor [2] (setting [10]), 10 µg/mL (≈ 22.5 µM); in the assay with Streptomyces coelicolor [3] (KO-178, 48 h) it was 10 µg/mL (≈ 22.5 µM); with Streptomyces coelicolor [4] (SP2, 48 h), 3 µg/mL (≈ 6.75 µM); with Streptomyces coelicolor [5] it was 10 µg/mL (≈ 22.5 µM); against Streptomyces coelicolor [6] (KO-347, 48 h), 5 µg/mL (≈ 11.3 µM).

For the origin of these results see ChEMBL document CHEMBL1629651, “A novel insertion mutation in Streptomyces coelicolor ribosomal S12 protein results in paromomycin resistance and antibiotic overproduction” (2009).
